The source of these data is patent US7820720B2 (TDT Limited, priority 2008, dated 2010).

The structures appear in SMILES notation.

A short description of the data set: Terbinafine serum concentration after topical administration (LC-MSMS). In kind it is in vivo, human. The following applies: topical terbinafine formulation, 6.0 mg dose; day 1 and week 12; all individuals, each time point, steady state and all trough levels. On the procedure: Blood samples (2.7 ml) for the determination of terbinafine concentrations in serum were taken before the first application (0 hour) and 0.5, 1, 2, 4, 8, and 12 hours after administration of a 6.0 mg dose of topical terbinafine. The sample 12 hours following the first administration was taken before the second daily administration of the topical terbinafine formulation.
Serum samples for terbinafine were analyzed by LC-MSMS. The internal standard used was naftifine. Samples were prepared by adding 50 μL serum to 50 μL methanol and 300 μL of internal standard solution (50 μg/L naftifine in 9:1 acetonitrile/methanol solution). The solution was allowed to stand for 5 minutes, and then subjected to centrifugation. After centrifugation, 50 μL of the supernatant was added to 450 μL of the mobile phase solution.
The serum concentrations were measured at day 1 and week 12 of the study.

With `CN(C/C=C/C#CC(C)(C)C)Cc1cccc2ccccc12` [terbinafine], the Terbinafine serum concentration result is “less than 1 ng/ml”.
